The text below walks through data of patent US12599597B2, “Substituted N-benzhydrylacetamide inhibitors of jumanji domain histone demethylases for the treatment of cancer” (University of Kentucky Research Foundation, priority 2020, dated 2026).

One assay addresses T1, JMJD1A (KDM3A) (Homo sapiens, UniProt Q9Y4C1).
T1 sequence (Q9Y4C1 1-1321): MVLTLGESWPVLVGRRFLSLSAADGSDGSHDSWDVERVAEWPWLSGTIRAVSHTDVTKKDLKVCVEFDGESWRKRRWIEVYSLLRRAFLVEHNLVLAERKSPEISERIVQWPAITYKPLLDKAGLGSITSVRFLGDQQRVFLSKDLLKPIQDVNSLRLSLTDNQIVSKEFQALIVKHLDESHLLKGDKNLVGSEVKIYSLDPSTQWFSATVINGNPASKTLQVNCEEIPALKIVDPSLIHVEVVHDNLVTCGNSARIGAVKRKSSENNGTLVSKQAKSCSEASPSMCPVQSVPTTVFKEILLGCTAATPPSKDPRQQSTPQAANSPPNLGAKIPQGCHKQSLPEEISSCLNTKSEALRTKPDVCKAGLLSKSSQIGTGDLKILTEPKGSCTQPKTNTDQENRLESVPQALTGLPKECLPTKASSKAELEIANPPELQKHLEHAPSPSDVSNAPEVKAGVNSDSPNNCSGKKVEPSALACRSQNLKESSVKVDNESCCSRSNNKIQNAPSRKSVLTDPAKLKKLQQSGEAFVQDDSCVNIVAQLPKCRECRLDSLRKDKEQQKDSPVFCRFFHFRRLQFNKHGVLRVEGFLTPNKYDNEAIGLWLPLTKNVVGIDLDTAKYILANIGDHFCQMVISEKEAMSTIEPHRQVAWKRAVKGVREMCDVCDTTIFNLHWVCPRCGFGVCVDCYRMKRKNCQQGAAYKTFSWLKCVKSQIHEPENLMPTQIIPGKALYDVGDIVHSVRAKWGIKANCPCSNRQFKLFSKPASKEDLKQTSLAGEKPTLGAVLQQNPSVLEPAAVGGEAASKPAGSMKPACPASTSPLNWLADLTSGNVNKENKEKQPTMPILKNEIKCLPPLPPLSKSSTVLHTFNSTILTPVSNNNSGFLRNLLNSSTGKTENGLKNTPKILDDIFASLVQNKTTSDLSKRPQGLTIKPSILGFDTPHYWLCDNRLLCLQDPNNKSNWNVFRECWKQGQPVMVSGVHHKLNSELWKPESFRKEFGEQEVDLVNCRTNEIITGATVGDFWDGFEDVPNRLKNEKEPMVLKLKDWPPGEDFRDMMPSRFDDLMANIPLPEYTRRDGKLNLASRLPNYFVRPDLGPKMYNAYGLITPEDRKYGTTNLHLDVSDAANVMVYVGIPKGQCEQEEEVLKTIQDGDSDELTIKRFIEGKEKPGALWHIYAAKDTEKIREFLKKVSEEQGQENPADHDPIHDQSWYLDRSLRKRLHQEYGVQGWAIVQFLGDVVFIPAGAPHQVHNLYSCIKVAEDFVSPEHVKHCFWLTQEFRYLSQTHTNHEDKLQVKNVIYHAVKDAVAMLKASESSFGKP
The assay can be described thus: Histone demethylase assay / KDM3A enzymatic activity in vitro. The format is biochemical. An excerpt:
Histone Demethylase Assay
To further examine the effects of 58B1 on histone demethylase, we screened a panel of purified histone demethylases was screened.
Identification of KDM3A as a target of CBA-1. KDM3A regulated H3K9Me^2 and underwent significant upregulation in CRC. To test if CBA-1 targeted KDM3A, a biotinylated analog CBA-B2 (FIG. 7A) was synthesized. […] Knocking-down KDM3A by shRNA inhibited cell proliferation (FIG. 7D) and Wnt target gene expression in LS174T CRC cells (FIG. 7E).
Repurposing drugs as CBA-1 analogs and KDM3 inhibitors. CBA-1 is a specific and potent KDM3A inhibitor. As backup candidates, two approved drugs were identified as CBA-1 analogs and KDM3A inhibitors. Based on the docking study (FIGS. 8A-B), the N and OH groups (red color in FIG. 12A) are critical in binding the Mn^2+ in KDM3A. […] A virtual screening was performed and several antibiotics that have similar structures were identified. Two of these antibiotics, clioquinol and nitroxoline (FIG. 12B), indeed inhibited the enzymatic activities of KDM3 (FIGS. 12C and D). These two drugs were tested in LS174T tumor xenograft model in SCID mice. […] Nitroxoline has been used in Europe for over 50 years as an antibiotic. It has anticancer effects, but the mechanism remains unclear.

The test system of another assay is DLD1. The assay can be described thus: Colon cancer cell proliferation. The format is cell-based. Here is the method:
(§1) FIGS. 5A-B show an image and graph illustrating validation of CBA-1. (A) CBA-1 repressed Wnt targets in LS174T CRC cells. (B) CBA-1 inhibited CRC cell proliferation (5d, Vi-Cell viability assay).
(§2) The effects of these compounds on proliferation of colon cancer cell line LS174T and DLD1 were analyzed.
(§3) Identification of a CBA-1 as a novel Wnt inhibitor. The present inventors routinely use TOPFlash reporter assay for Wnt inhibitor screening. To mimic the constitutively active Wnt signaling found in CRC cells, Wnt signaling was activated by inhibiting GSK3 and stabilizing β-catenin. From screening in house small-molecule libraries, CBA-1 (FIG. 4) was identified that inhibited Wnt signaling in TOPFlash reporter assay. To validate the screening results, CBA-1 was tested in CRC cells.

Another assay has as its system LS174T. The assay can be described thus: Colon cancer cell proliferation. The format is cell-based. Here is the method: as §1, §2, §3
In assay [1] the test system is Wnt target genes in LS174T colon cancer cells. The assay can be described thus: Western blotting of Wnt target genes in colon cancer cells. The format is cell-based.
Description: The activities of 58B1 were validated by western blotting.
as §3

Assay [2] has as its system CRC organoids from Apc^f/+/Kras^LSL-G12D/Villin-Cre mice. The assay can be described thus: Mouse CRC organoids formation. Particulars: 3 μM; p<0.01. It counts as cell-based. Here is the method:
FIGS. 11A-B show an image and a graph illustrating mouse CRC organoids. (A) CRC organoids from Apc^f/+/Kras^LsL-G12D/Villin-Cre mice. (B) CBA-1 (3 μM) inhibited CRC organoids (*p<0.01; n=3).
CRC organoids models. To analyze the effects of CBA-1 in CRC, a colon cancer organoid model was established from Apc^f/+/Kras^LSL-G12D/Villin-Cre mice (FIG. 11A).

For orientation: inhibition means the relative decrease from the control value, in per cent. Low values mean a weak effect, high ones a strong effect. `CCCC(=O)NC(c1ccc(N(CC)CC)cc1)c1cc(Cl)c2cccnc2c1O` (stereo not drawn) [58B1] showed an inhibition at 10 µM on JMJD1A (KDM3A) (58B1, 10 μM) of 99%. For the same compound, the “KDM3A activity in vitro, dose-response study” value at JMJD1A (KDM3A) (at low micromolar levels) is reported as “inhibited”. For the same compound, the “proliferation of CRC cell lines” value in the assay with DLD1 (DLD1 (APC mutation), 5d, Vi-Cell viability assay) is “inhibited proliferation”; with LS174T (LS174T (β-catenin mutation), 5d, Vi-Cell viability assay), “inhibited proliferation”. The “proliferation of colon cancer cell line” value in the assay on DLD1 (DLD1, at low nanomolar concentrations) is “strongly inhibited”; in the assay with LS174T (LS174T, at low nanomolar concentrations), “strongly inhibited”. The “expression of Wnt target genes” value was “strongly inhibited” in assay [1] (5 μM, LS174T, western blotting) and “repressed” in assay [1] (CRC cells (LS174T), concentration not given). Further, the “mouse CRC organoids formation” value in assay [2] is reported as “significantly inhibited”.
